Laboratory results as given in US12495798B2, “Nicotinamide compound and herbicidal composition comprising compound” (KOREA RESEARCH INSTITUTE OF CHEMICAL TECHNOLOGY, priority 2019, dated 2025).

Columns and labels:
Type in all cases: in vivo
barnyard grass = experiment: Herbicidal activity test against upland field weeds (foliar treatment test); set-up: key to Foliar treatment herbicidal activity, barnyard grass: 0 (no control); 100 (complete control); conditions: scale 0-100; for Foliar treatment herbicidal activity, barnyard grass / pest or weed control at 50 g/ha: 50 g ai/ha
Summary of the method: (§1)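 Greenhouse-grown plants (30±5 °C, 14/10 h light/dark) foliar hand-sprayed with compound in 50% acetone, 0.1% Tween-20 at 50 or 75 g a.i./ha. Control visually scored 0 (none) to 100 (complete) versus untreated after 14 days, or 21 days if needed.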

fall panicum = experiment: as above; conditions: scale 0-100; for Foliar treatment herbicidal activity, Fall panicum / pest or weed control at 50 g/ha: 50 g ai/ha
Summary of the method: as §1

black nightshade = experiment: Herbicidal activity test against upland field weeds (soil treatment test); set-up: key to Soil treatment herbicidal activity, black nightshade: 0 (no control); 100 (complete control); conditions: scale 0 (no control) to 100 (complete control); for pest or weed control at 50 g/ha: Solanum nigrum
Summary of the method: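 Pre-emergence soil surface spray, day after sowing, into sandy loam pots with fertilizer; compounds at 50 or 75 g a.i./ha in 50% acetone, 0.1% Tween-20. Greenhouse at 30±5 °C, 14/10 h light/dark; visual control rated 0–100 against untreated after 14 days (21 if needed).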

SMILES: CCOC(=O)OC(C)N(C(=O)c1ccc(C(F)(F)F)nc1COCc1nnn(C)n1)c1nnnn1C (stereo not drawn) [Compound No. 4-8, ethyl(1-(N-(1-methyl-1H-tetrazol-5-yl)-2-(((2-methyl-2H-tetrazol-5-yl)methoxy)methyl)-6-(trifluoromethyl)nicotinamido)ethyl)carbonate]
- Foliar treatment herbicidal activity, barnyard grass (barnyard grass): 98
- Foliar treatment herbicidal activity, Fall panicum (fall panicum): 80
- Soil treatment herbicidal activity, black nightshade (black nightshade; 50 g ai/ha): 100

SMILES: Cn1nnc(CSCc2nc(C(F)(F)F)ccc2C(=O)Nc2nnnn2C)n1 [Compound No. 2-102, N-(1-methyl-1H-tetrazol-5-yl)-2-((((2-methyl-2H-tetrazol-5-yl)methyl)thio)methyl)-6-(trifluoromethyl)nicotinamide]
- pest or weed control at 50 g/ha (barnyard grass; Echinochloa crus-galli): 95%
- pest or weed control at 50 g/ha (fall panicum; Panicum dichotomiflorum): 80%
- Soil treatment herbicidal activity, black nightshade (black nightshade; 50 g ai/ha): 100

SMILES: Cn1nnc(COCc2nc(C(F)F)ccc2C(=O)Nc2nnnn2C)n1 [Compound No. 2-84, 6-(difluoromethyl)-N-(1-methyl-1H-tetrazol-5-yl)-2-(((2-methyl-2H-tetrazol-5-yl)methoxy)methyl)nicotinamide]
- pest or weed control at 50 g/ha (barnyard grass; Echinochloa crus-galli): 95%
- pest or weed control at 50 g/ha (fall panicum; Panicum dichotomiflorum): 90%
- Soil treatment herbicidal activity, black nightshade (black nightshade; 50 g ai/ha): 100

SMILES: Cn1nnnc1COc1nc(C(F)(F)F)ccc1C(=S)Nc1nnnn1C [Compound No. 1-43, N-(1-methyl-1H-tetrazol-5-yl)-2-((1-methyl-1H-tetrazol-5-yl)methoxy)-6-(trifluoromethyl)pyridin-3-carbothioamide]
- pest or weed control at 50 g/ha (barnyard grass; Echinochloa crus-galli): 95%
- pest or weed control at 50 g/ha (fall panicum; Panicum dichotomiflorum): 95%
- Soil treatment herbicidal activity, black nightshade (black nightshade; 50 g ai/ha): 0

SMILES: Cn1nnc(COc2nc(C(F)(F)F)ccc2C(=O)Nc2nnnn2C)n1 [Compound No. 2-1, N-(1-methyl-1H-tetrazol-5-yl)-2-((2-methyl-2H-tetrazol-5-yl)methoxy)-6-(trifluoromethyl)nicotinamide]
- pest or weed control at 50 g/ha (barnyard grass; Echinochloa crus-galli): 98%
- pest or weed control at 50 g/ha (fall panicum; Panicum dichotomiflorum): 70%
- pest or weed control at 50 g/ha (black nightshade; 50 g ai/ha): 90%

SMILES: Cc1nc(COCc2nc(C(F)(F)F)ccc2C(=O)Nc2nnnn2C)nn1C [Compound No. 2-116, 2-(((1,5-dimethyl-1H-1,2,4-triazol-3-yl)methoxy)methyl)-N-(1-methyl-1H-tetrazol-5-yl)-6-(trifluoromethyl)nicotinamide]
- pest or weed control at 50 g/ha (barnyard grass; Echinochloa crus-galli): 98%
- pest or weed control at 50 g/ha (fall panicum; Panicum dichotomiflorum): 80%

SMILES: Cn1nc(COCc2nc(C(F)(F)F)ccc2C(=O)Nc2nnnn2C)nc1C#N [Compound No. 2-134, 2-(((5-cyano-1-methyl-1H-1,2,4-triazol-3-yl)methoxy)methyl)-N-(1-methyl-1H-tetrazol-5-yl)-6-(trifluoromethyl)nicotinamide]
- pest or weed control at 50 g/ha (barnyard grass; Echinochloa crus-galli): 98%
- pest or weed control at 50 g/ha (fall panicum; Panicum dichotomiflorum): 50%

SMILES: Cn1nnc(CS(=O)(=O)Cc2nc(C(F)(F)F)ccc2C(=O)Nc2nnnn2C)n1 [Compound No. 2-105, N-(1-methyl-1H-tetrazol-5-yl)-2-((((2-methyl-2H-tetrazol-5-yl)methyl)sulfonyl)methyl)-6-(trifluoromethyl)nicotinamide]
- Foliar treatment herbicidal activity, barnyard grass (barnyard grass): 0
- pest or weed control at 50 g/ha (fall panicum; Panicum dichotomiflorum): 50%
- pest or weed control at 50 g/ha (black nightshade; 50 g ai/ha): 60%

SMILES: Cn1nnc(COCc2nc(C(F)(F)F)ccc2C(=O)N(c2nnnn2C)S(C)(=O)=O)n1 [Compound No. 2-69, N-(1-methyl-1H-tetrazol-5-yl)-2-(((2-methyl-2H-tetrazol-5-yl)methoxy)methyl)-N-(methylsulfonyl)-6-(trifluoromethyl)nicotinamide]
- pest or weed control at 50 g/ha (barnyard grass; Echinochloa crus-galli): 70%
- pest or weed control at 50 g/ha (fall panicum; Panicum dichotomiflorum): 60%

SMILES: Cn1ncnc1COCc1nc(C(F)(F)F)ccc1C(=O)Nc1nnnn1C [Compound No. 1-102, 2-(((1-methyl-1H-1,2,4-triazol-5-yl)methoxy)methyl)-N-(1-methyl-1H-tetrazol-5-yl)-6-(trifluoromethyl)nicotinamide]
- pest or weed control at 50 g/ha (barnyard grass; Echinochloa crus-galli): 80%
- pest or weed control at 50 g/ha (fall panicum; Panicum dichotomiflorum): 70%

SMILES: Cn1nnc(COCc2nc(C(F)(F)C(F)(F)F)ccc2C(=O)Nc2nnnn2C)n1 [Compound No. 2-81, N-(1-methyl-1H-tetrazol-5-yl)-2-(((2-methyl-2H-tetrazol-5-yl)methoxy)methyl)-6-(perfluoroethyl)nicotinamide]
- pest or weed control at 50 g/ha (barnyard grass; Echinochloa crus-galli): 80%
- pest or weed control at 50 g/ha (fall panicum; Panicum dichotomiflorum): 70%

SMILES: Cc1nc(COCc2nc(C(F)(F)F)ccc2C(=S)Nc2nnnn2C)nn1C [Compound No. 2-117, 2-(((1,5-dimethyl-1H-1,2,4-triazol-3-yl)methoxy)methyl)-N-(1-methyl-1H-tetrazol-5-yl)-6-(trifluoromethyl)pyridin-3-carbothioamide]
- pest or weed control at 50 g/ha (barnyard grass; Echinochloa crus-galli): 98%
- pest or weed control at 50 g/ha (fall panicum; Panicum dichotomiflorum): 40%

SMILES: Cn1cnc(COCc2nc(C(F)F)ccc2C(=O)Nc2nnnn2C)n1 [Compound No. 2-85]
- Foliar treatment herbicidal activity, barnyard grass (barnyard grass): 99
- Foliar treatment herbicidal activity, Fall panicum (fall panicum): 84
- Soil treatment herbicidal activity, black nightshade (black nightshade; 50 g ai/ha): 93

SMILES: CCOC(=O)OC(C)n1nnn(C)c1=NC(=O)c1ccc(C(F)(F)F)nc1CSCc1nnn(C)n1 (stereo not drawn) [Compound No. 4-10, ethyl (1-(4-methyl-5-((2-((((2-methyl-2H-tetrazol-5-yl)methyl)thio)methyl)-6-(trifluoromethyl)nicotinoyl)imino)-4,5-dihydro-1H-tetrazol-1-yl)ethyl)carbonate]
- Foliar treatment herbicidal activity, barnyard grass (barnyard grass): 98
- Foliar treatment herbicidal activity, Fall panicum (fall panicum): 95
- Soil treatment herbicidal activity, black nightshade (black nightshade; 50 g ai/ha): 100

SMILES: CN(Cc1nnn(C)n1)c1nc(C(F)(F)F)ccc1C(=O)Nc1nnnn1C [Compound No. 2-26, 2-(methyl((2-methyl-2H-tetrazol-5-yl)methyl)amino)-N-(1-methyl-1H-tetrazol-5-yl)-6-(trifluoromethyl)nicotinamide]
- pest or weed control at 75 g/ha (barnyard grass; Echinochloa crus-galli, 75 g ai/ha): 98%
- pest or weed control at 75 g/ha (fall panicum; Panicum dichotomiflorum, 75 g ai/ha): 70%
- Soil treatment herbicidal activity, black nightshade (black nightshade; 75 g ai/ha): 100

SMILES: COC(=O)OC(C)N(C(=O)c1ccc(C(F)(F)F)nc1COCc1nnn(C)n1)c1nnnn1C (stereo not drawn) [Compound No. 4-4, methyl(1-(N-(1-methyl-1H-tetrazol-5-yl)-2-(((2-methyl-2H-tetrazol-5-yl)methoxy)methyl)-6-(trifluoromethyl)nicotinamido)ethyl)carbonate]
- Foliar treatment herbicidal activity, barnyard grass (barnyard grass): 100
- Foliar treatment herbicidal activity, Fall panicum (fall panicum): 98
- Soil treatment herbicidal activity, black nightshade (black nightshade; 50 g ai/ha): 100

SMILES: Cn1nnc(COCc2nc(C(F)(F)F)ccc2C(=O)N(C(=O)c2ccccc2)c2nnnn2C)n1 [Compound No. 2-68, N-benzoyl-N-(1-methyl-1H-tetrazol-5-yl)-2-(((2-methyl-2H-tetrazol-5-yl)methoxy)methyl)-6-(trifluoromethyl)nicotinamide]
- Foliar treatment herbicidal activity, barnyard grass (barnyard grass): 100
- pest or weed control at 50 g/ha (fall panicum; Panicum dichotomiflorum): 98%

SMILES: COc1nc(COCc2nc(C(F)(F)F)ccc2C(=O)Nc2nnnn2C)nn1C [Compound No. 2-129, 2-(((5-methoxy-1-methyl-1H-1,2,4-triazol-3-yl)methoxy)methyl)-N-(1-methyl-1H-tetrazol-5-yl)-6-(trifluoromethyl)nicotinamide]
- pest or weed control at 50 g/ha (barnyard grass; Echinochloa crus-galli): 90%
- pest or weed control at 50 g/ha (fall panicum; Panicum dichotomiflorum): 50%
- Soil treatment herbicidal activity, black nightshade (black nightshade; 50 g ai/ha): 100

SMILES: Cn1nnnc1COc1nc(C(F)(F)F)ccc1C(=O)Nc1nnnn1C [Compound No. 1-1, N-(1-methyl-1H-tetrazol-5-yl)-2-((1-methyl-1H-tetrazol-5-yl)methoxy)-6-(trifluoromethyl)nicotinamide]
- pest or weed control at 50 g/ha (barnyard grass; Echinochloa crus-galli): 98%
- pest or weed control at 50 g/ha (fall panicum; Panicum dichotomiflorum): 95%
- Soil treatment herbicidal activity, black nightshade (black nightshade; 50 g ai/ha): 100

SMILES: Cn1nnc(COCc2nc(C(F)(F)F)ccc2C(=S)Nc2nnnn2C)n1 [Compound No. 2-106, N-(1-methyl-1H-tetrazol-5-yl)-2-(((2-methyl-2H-tetrazol-5-yl)methoxy)methyl)-6-(trifluoromethyl)pyridin-3-carbothioamide]
- pest or weed control at 50 g/ha (barnyard grass; Echinochloa crus-galli): 80%
- pest or weed control at 50 g/ha (fall panicum; Panicum dichotomiflorum): 70%

SMILES: Cn1nnc(CSCc2nc(C(F)(F)F)ccc2C(=O)N(c2nnnn2C)S(C)(=O)=O)n1 [Compound No. 2-110, N-(1-methyl-1H-tetrazol-5-yl)-2-((((2-methyl-2H-tetrazol-5-yl)methyl)thio)methyl)-N-(methylsulfonyl)-6-(trifluoromethyl)nicotinamide]
- pest or weed control at 50 g/ha (barnyard grass; Echinochloa crus-galli): 20%
- pest or weed control at 50 g/ha (fall panicum; Panicum dichotomiflorum): 70%

SMILES: CON(Cc1nnn(C)n1)Cc1nc(C(F)(F)F)ccc1C(=O)Nc1nnnn1C [Compound No. 2-97, 2-((methoxy((2-methyl-2H-tetrazol-5-yl)methyl)amino)methyl)-N-(1-methyl-1H-tetrazol-5-yl)-6-(trifluoromethyl)nicotinamide]
- pest or weed control at 50 g/ha (barnyard grass; Echinochloa crus-galli): 95%
- pest or weed control at 50 g/ha (fall panicum; Panicum dichotomiflorum): 95%

SMILES: Cn1nc(COCc2nc(C(F)(F)F)ccc2C(=O)Nc2nnnn2C)nc1Br [Compound No. 2-136, 2-(((5-bromo-1-methyl-1H-1,2,4-triazol-3-yl)methoxy)methyl)-N-(1-methyl-1H-tetrazol-5-yl)-6-(trifluoromethyl)nicotinamide]
- pest or weed control at 50 g/ha (barnyard grass; Echinochloa crus-galli): 70%
- pest or weed control at 50 g/ha (fall panicum; Panicum dichotomiflorum): 50%

SMILES: Cn1nnc(COCc2nc(C(F)(F)Cl)ccc2C(=O)Nc2nnnn2C)n1 [Compound No. 2-78, 6-(chlorodifluoromethyl)-N-(1-methyl-1H-tetrazol-5-yl)-2-(((2-methyl-2H-tetrazol-5-yl)methoxy)methyl)nicotinamide]
- pest or weed control at 50 g/ha (barnyard grass; Echinochloa crus-galli): 70%
- pest or weed control at 50 g/ha (fall panicum; Panicum dichotomiflorum): 70%
